From patent US20250230193A1, “CYCLIC COMPOUND HAVING SELECTIVE KRAS INHIBITORY EFFECT ON HRAS AND NRAS” (CHUGAI SEIYAKU KABUSHIKI KAISHA, priority 2022, published 2025) come the findings set out here.

The target of experiment [1] is GDP-bound KRAS wild-type protein (Homo sapiens, UniProt P01116). Put plainly: Binding to KRAS by surface plasmon resonance (SPR), Single Cycle Kinetics. To be noted: SPR, Single Cycle Kinetics; GDP-bound KRAS wild-type protein. In general terms: SPR reads the build-up and loss of mass on a sensor chip optically.
Experiment [2] deals with GDP-bound NRAS wild-type protein (Homo sapiens, UniProt P01111). Kind of experiment: Binding to NRAS by surface plasmon resonance (SPR), Single Cycle Kinetics. The settings on record: SPR; KD ratio class.
Sequence of GDP-bound NRAS wild-type protein (P01111 whole entry): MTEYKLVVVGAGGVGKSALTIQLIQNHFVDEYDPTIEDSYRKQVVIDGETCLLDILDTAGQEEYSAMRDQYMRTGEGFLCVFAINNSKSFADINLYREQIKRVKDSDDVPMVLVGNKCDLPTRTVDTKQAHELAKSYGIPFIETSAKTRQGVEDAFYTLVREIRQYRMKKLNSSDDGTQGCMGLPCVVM
The target in experiment [3] is GDP-bound HRAS wild-type protein (Homo sapiens, UniProt P01112). Kind of experiment: Binding to HRAS by surface plasmon resonance (SPR), Single Cycle Kinetics. The settings on record: SPR; KD ratio class.
Sequence of GDP-bound HRAS wild-type protein (P01112 whole entry): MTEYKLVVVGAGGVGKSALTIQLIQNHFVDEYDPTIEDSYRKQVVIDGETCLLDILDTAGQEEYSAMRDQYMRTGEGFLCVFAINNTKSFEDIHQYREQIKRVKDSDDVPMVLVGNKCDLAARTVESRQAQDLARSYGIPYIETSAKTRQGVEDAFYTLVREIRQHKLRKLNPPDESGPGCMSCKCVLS
Experiment [4] deals with human lung cancer strain NCI-H441. The settings on record: read-out: NCI-H441 IC50; NCI-H441 cells, 4 days, CellTiter-Glo. On the technique in general: Cellular ATP, detected with luciferase, serves as a proxy for viable cell number.

Structures are written as SMILES. pIC50, pKd: −log10 of the molar value.

The pKd is −log10 of the Kd, conventionally taken in molar units. Read a high pKd as a low Kd. What is called pIC50 is the IC50 on a negative log10 scale, so that one unit is a factor of ten. In experiment [1], `CCO[C@@H]1C[C@H]2C(=O)NC3(CCCC3)C(=O)N(C)[C@@H](C3CCCC3)C(=O)N(C)[C@H](C(=O)N(C)C)CC(=O)N(C)[C@@H](CC)C(=O)N[C@@H]([C@@H](C)CC)C(=O)N(C)CC(=O)N(C)[C@H]3C/C=C\CCN(C3=O)[C@@H](Cc3ccc(C(F)(F)F)cc3)C(=O)N(C)CC(=O)N[C@@H](CCc3cc(F)c(C(F)(F)F)c(F)c3)C(=O)N2C1` [PP1276] gave a pKd of 10.18. Besides, the “NRAS/KRAS (ratio of KD value for GDP-bound NRAS wild-type protein to KD value for KRAS)” value in experiment [2] was “A (a compound having 10 or more and less than 20 is denoted as A)”. The “HRAS/KRAS (ratio of KD value for GDP-bound HRAS wild-type protein to KD value for KRAS)” value in experiment [3] was “B (a compound having 3 or more and less than 10 is denoted as B)”. The pIC50 in experiment [4] is 7.68.
Consider `CCO[C@@H]1C[C@H]2C(=O)NC3(CCC3)C(=O)N(C)[C@@H](C3CCCC3)C(=O)N(C)[C@H](C(=O)N3CCCC3)CC(=O)N(C)[C@@H](CC3CC3)C(=O)N[C@@H]([C@@H](C)CC)C(=O)N(C)CC(=O)N(C)[C@H]3C/C=C\CCN(C3=O)[C@@H](Cc3ccc(C(F)(F)F)cc3)C(=O)N(C)CC(=O)N[C@@H](CCc3cc(F)c(C(F)(F)F)c(F)c3)C(=O)N2C1` [PP1296], for which, in experiment [1], the pKd was 9.92. Moreover, the “NRAS/KRAS (ratio of KD value for GDP-bound NRAS wild-type protein to KD value for KRAS)” value in experiment [2] is reported as “AA (a compound having 20 or more is denoted as AA)”. For the same compound, the “HRAS/KRAS (ratio of KD value for GDP-bound HRAS wild-type protein to KD value for KRAS)” value in experiment [3] was “A (a compound having 10 or more and less than 20 is denoted as A)”. In addition, the pIC50 in experiment [4] was 7.83.
`CCC[C@H]1C(=O)N[C@@H]([C@@H](C)CC)C(=O)N(C)CC(=O)N(C)[C@H]2C/C=C\CCN(C2=O)[C@@H](Cc2ccc(C(F)(F)F)cc2)C(=O)N(C)CC(=O)N[C@@H](CCc2cc(F)c(C(F)(F)F)c(F)c2)C(=O)N2C[C@H](OCC)C[C@H]2C(=O)NC2(CCC2)C(=O)N(C)[C@@H](C2CCCC2)C(=O)N(C)[C@H](C(=O)N2CCCC2)CC(=O)N1C` [PP1299] had a pKd in experiment [1] of 9.85. Besides, the “NRAS/KRAS (ratio of KD value for GDP-bound NRAS wild-type protein to KD value for KRAS)” value in experiment [2] was “A (a compound having 10 or more and less than 20 is denoted as A)”. Further, the “HRAS/KRAS (ratio of KD value for GDP-bound HRAS wild-type protein to KD value for KRAS)” value in experiment [3] is “A (a compound having 10 or more and less than 20 is denoted as A)”. Also, in experiment [4], the pIC50 was 7.96.
Compound `CCCC[C@H]1C(=O)N[C@@H]([C@@H](C)CC)C(=O)N(C)CC(=O)N(C)[C@H]2C/C=C\CCN(C2=O)[C@@H](Cc2ccc(C(F)(F)F)cc2)C(=O)N(C)CC(=O)N[C@@H](CCc2cc(F)c(C(F)(F)F)c(F)c2)C(=O)N2C[C@H](OCC)C[C@H]2C(=O)NC2(CCCC2)C(=O)N(C)[C@@H](C2CCCC2)C(=O)N(C)[C@H](C(=O)N(C)C)CC(=O)N1C` [PP1397] showed a pKd in experiment [1] of 10.14. In addition, the “NRAS/KRAS (ratio of KD value for GDP-bound NRAS wild-type protein to KD value for KRAS)” value in experiment [2] is “A (a compound having 10 or more and less than 20 is denoted as A)”. The “HRAS/KRAS (ratio of KD value for GDP-bound HRAS wild-type protein to KD value for KRAS)” value in experiment [3] was “A (a compound having 10 or more and less than 20 is denoted as A)”. The pIC50 in experiment [4] is 8.43.
Turning to `CCCOC[C@H]1C(=O)N[C@@H]([C@@H](C)CC)C(=O)N(C)CC(=O)N(C)[C@H]2C/C=C\CCN(C2=O)[C@@H](Cc2ccc(C(F)(F)F)cc2)C(=O)N(C)CC(=O)N[C@@H](CCc2cc(F)c(C(F)(F)F)c(F)c2)C(=O)N2C[C@H](OCC)C[C@H]2C(=O)NC2(CC(C)(C)C2)C(=O)N(C)[C@@H](C2CCCC2)C(=O)N(C)[C@H](C(=O)N(C)C)CC(=O)N1C` [PP1398], in experiment [1], the pKd was 10.49. Moreover, the “NRAS/KRAS (ratio of KD value for GDP-bound NRAS wild-type protein to KD value for KRAS)” value in experiment [2] is “A (a compound having 10 or more and less than 20 is denoted as A)”. For the same compound, in experiment [3], the “HRAS/KRAS (ratio of KD value for GDP-bound HRAS wild-type protein to KD value for KRAS)” value was “A (a compound having 10 or more and less than 20 is denoted as A)”. Further, in experiment [4], the pIC50 was 8.64.
